Source: patent publication US9469633B2 (dated 2016)

| melting point | SMILES |
| --- | --- |
| 138 to 141 °C | O=C1C[C@](c2cc(Cl)cc(Cl)c2)(C(F)(F)F)C(=O)N1 |
| 72 to 76 °C | O=C(/C=C(\c1cc(Cl)cc(Cl)c1)C(F)(F)F)c1ccco1 |
